Test results reported in patent US8952024B2, “Herbicidal pyrimidone derivatives” (E I du Pont de Nemours and Company, priority 2009, dated 2015).

What was measured:
Assay type in all cases: in vivo
[1] = test system: ducksalad (Heteranthera limosa); experiment: Test B flooded paddy test; settings: for Plant response rating, Flood, Ducksalad: 250 g ai/ha, flooded paddy test, visual rating on 0 to 100 scale (0 no effect, 100 complete control) after 13 to 15 days; for Plant response rating, Ducksalad: Flood (flooded paddy test), 13 to 15 days
Summary of the method: (§1)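 Plants were grown to the 2-leaf stage, then pots were flooded to 3 cm above the soil and compounds were applied directly into the paddy water. That depth was held throughout. After 13 to 15 days in a greenhouse, injury was visually rated against controls on a 0–100 scale.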

rice (Oryza sativa) = experiment: Test B flooded paddy test; settings: for Plant response rating, Flood, Rice: 250 g ai/ha, flooded paddy test, visual rating on 0 to 100 scale (0 no effect, 100 complete control) after 13 to 15 days; for Plant response rating, Rice: Flood (flooded paddy test), 13 to 15 days
Summary of the method: as §1

[2] = test system: barnyardgrass (Echinochloa crus-galli); experiment: Test B flooded paddy test; settings: for Plant response rating, Flood, Barnyardgrass: 250 g ai/ha, flooded paddy test, visual rating on 0 to 100 scale (0 no effect, 100 complete control) after 13 to 15 days; for Plant response rating, Barnyardgrass: Flood (flooded paddy test), 13 to 15 days
Summary of the method: as §1

[3] = test system: umbrella sedge (Cyperus difformis); experiment: Test B flooded paddy test; settings: for Plant response rating, Flood, Sedge, Umbrella: 250 g ai/ha, flooded paddy test, visual rating on 0 to 100 scale (0 no effect, 100 complete control) after 13 to 15 days; for Plant response rating, Sedge, Umbrella: Flood (flooded paddy test), 13 to 15 days
Summary of the method: as §1

[4] = test system: giant foxtail (Setaria faberii); experiment: Test A pre-/postemergence plant response
Summary of the method: (§2)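 Formulated test chemicals (non-phytotoxic solvent, surfactant) were sprayed onto soil right after planting and simultaneously onto young plants at one to two leaves, 2 to 10 cm tall. Plants stayed in the greenhouse about ten days; injury was then visually scored against untreated controls, from 0 (no effect) to 100 (complete control).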

[5] = test system: morningglory (Ipomoea spp.); experiment: Test A pre-/postemergence plant response
Summary of the method: as §2

corn (Zea mays) = experiment: Test A pre-/postemergence plant response; settings: for Corn plant response rating: visual injury, 0 to 100 scale (0 no effect, 100 complete control), approx. ten days
Summary of the method: as §2

[6] = test system: wheat (Triticum aestivum); experiment: Test A pre-/postemergence plant response
Summary of the method: as §2

[7] = test system: pigweed (Amaranthus retroflexus); experiment: Test A pre-/postemergence plant response
Summary of the method: as §2

[8] = test system: barnyardgrass (Echinochloa crus-galli); experiment: Test A pre-/postemergence plant response; settings: for Barnyardgrass plant response rating: visual injury, 0 to 100 scale (0 no effect, 100 complete control), approx. ten days
Summary of the method: as §2

[9] = test system: large crabgrass (Digitaria sanguinalis); experiment: Test A pre-/postemergence plant response; settings: for Crabgrass, Large plant response rating: visual injury, 0 to 100 scale (0 no effect, 100 complete control), approx. ten days
Summary of the method: as §2

[10] = test system: velvetleaf (Abutilon theophrasti); experiment: Test A pre-/postemergence plant response
Summary of the method: as §2

[11] = 62 g ai/ha, scale of 0 to 100 where 0 is no effect and 100 is complete control
[12] = Postemergence, 125 g ai/ha, 0 to 100 scale where 0 is no effect and 100 is complete control
[13] = Postemergence, 500 g ai/ha, visual injury, 0 to 100 scale (0 no effect, 100 complete control), approx. ten days
[14] = Preemergence, 125 g ai/ha, 0 to 100 scale, 0 = no effect, 100 = complete control
[15] = Preemergence, 500 g ai/ha, 0 to 100 scale, 0 = no effect, 100 = complete control
[16] = 125 g ai/ha, scale 0 to 100, 0 is no effect, 100 is complete control
[17] = Flood, 31 g ai/ha, scale 0 to 100 (0 no effect, 100 complete control)
[18] = Postemergence, 125 g ai/ha, visual injury, 0 to 100 scale (0 no effect, 100 complete control), approx. ten days
[19] = Preemergence, 125 g ai/ha, 0 to 100 scale where 0 is no effect and 100 is complete control, approximately ten days

With Cc1ccc(C)c(-n2c(-c3ccccc3)ncc(C(=O)c3cnoc3C3CC3)c2=O)c1 [Compound 222] the “Plant response rating, Flood, Ducksalad” value [1] was 65, the “Plant response rating, Ducksalad” value [1, 11] was 50 and the “Plant response rating, Flood, Rice” value (rice (Oryza sativa)) was 0. The “Plant response rating, Rice” value (rice (Oryza sativa); [11]) was 0, the “Plant response rating, Flood, Barnyardgrass” value [2] was 0 and the “Plant response rating, Barnyardgrass” value [2, 11] was 0. The “Plant response rating, Flood, Sedge, Umbrella” value [3] was 40, the “Plant response rating, Sedge, Umbrella” value [3, 11] was 30 and the “Plant response rating, Foxtail, Giant” value [4, 12] was 0. For the same molecule, the “Foxtail, Giant plant response rating” value [4, 13] was 40, the “Plant response rating, Foxtail, Giant” value [4, 14] was 30 and the “Plant response rating, Foxtail, Giant” value [4, 15] was 60. The “Plant response rating, Morningglory” value [5, 12] was 30, the “Morningglory plant response rating” value [5, 13] was 40 and the “Plant response rating, Morningglory” value [5, 14] was 0. For the same molecule, the “Plant response rating, Morningglory” value [5, 15] was 40, the “Plant response rating, Corn” value (corn (Zea mays); [12]) was 0 and the “Corn plant response rating” value (corn (Zea mays); Postemergence, 500 g ai/ha) was 0. For the same molecule, the “Plant response rating, Corn” value (corn (Zea mays); [14]) was 0, the “Plant response rating, Corn” value (corn (Zea mays); [15]) was 0 and the “Plant response rating, Wheat” value [6, 12] was 0. For the same molecule, the “Wheat plant response rating” value [6, 13] was 0, the “Plant response rating, Wheat” value [6, 14] was 0 and the “Plant response rating, Wheat” value [6, 15] was 0. For the same molecule, the “Plant response rating, Pigweed” value [7, 12] was 40, the “Pigweed plant response rating” value [7, 13] was 70 and the “Plant response rating, Pigweed” value [7, 14] was 0. For the same molecule, the “Plant response rating, Pigweed” value [7, 15] was 0, the “Plant response rating, Barnyardgrass” value [8, 12] was 10 and the “Barnyardgrass plant response rating” value ([8]; Postemergence, 500 g ai/ha) was 80. For the same molecule, the “Plant response rating, Barnyardgrass” value [8, 14] was 0, the “Plant response rating, Barnyardgrass” value [8, 15] was 60 and the “Plant response rating, Crabgrass, Large” value [9, 12] was 0. For the same molecule, the “Crabgrass, Large plant response rating” value ([9]; Postemergence, 500 g ai/ha) was 30, the “Plant response rating, Crabgrass, Large” value [9, 14] was 20 and the “Plant response rating, Crabgrass, Large” value [9, 15] was 20. The “Plant response rating, Velvetleaf” value [10, 12] was 60, the “Velvetleaf plant response rating” value [10, 13] was 90 and the “Plant response rating, Velvetleaf” value [10, 14] was 0. The “Plant response rating, Velvetleaf” value [10, 15] was 60.
CCn1c(-c2cccc(C)c2)ncc(C(=O)C2=C(O)C3CCC(C3)C2=O)c1=O (centres unmarked) [Compound 231] was tested, and the “Plant response rating, Flood, Ducksalad” value [1] was 0, the “Plant response rating, Ducksalad” value [1, 11] was 0 and the “Plant response rating, Flood, Rice” value (rice (Oryza sativa)) was 0. The “Plant response rating, Rice” value (rice (Oryza sativa); [11]) was 0, the “Plant response rating, Flood, Barnyardgrass” value [2] was 40 and the “Plant response rating, Barnyardgrass” value [2, 11] was 40. For the same molecule, the “Plant response rating, Flood, Sedge, Umbrella” value [3] was 75, the “Plant response rating, Sedge, Umbrella” value [3, 11] was 0 and the “Plant response rating, Foxtail, Giant” value [4, 12] was 60. For the same molecule, the “Foxtail, Giant plant response rating” value [4, 13] was 80, the “Plant response rating, Foxtail, Giant” value [4, 14] was 0 and the “Plant response rating, Foxtail, Giant” value [4, 15] was 60. The “Plant response rating, Morningglory” value [5, 12] was 90, the “Morningglory plant response rating” value [5, 13] was 100 and the “Plant response rating, Morningglory” value [5, 14] was 10. The “Plant response rating, Morningglory” value [5, 15] was 80, the “Plant response rating, Corn” value (corn (Zea mays); [12]) was 0 and the “Corn plant response rating” value (corn (Zea mays); Postemergence, 500 g ai/ha) was 40. The “Plant response rating, Corn” value (corn (Zea mays); [14]) was 0, the “Plant response rating, Corn” value (corn (Zea mays); [15]) was 20 and the “Plant response rating, Wheat” value [6, 12] was 0. The “Wheat plant response rating” value [6, 13] was 0, the “Plant response rating, Wheat” value [6, 14] was 0 and the “Plant response rating, Wheat” value [6, 15] was 0. For the same molecule, the “Plant response rating, Pigweed” value [7, 12] was 80, the “Pigweed plant response rating” value [7, 13] was 90 and the “Plant response rating, Pigweed” value [7, 14] was 50. For the same molecule, the “Plant response rating, Pigweed” value [7, 15] was 80, the “Plant response rating, Barnyardgrass” value [8, 12] was 70 and the “Barnyardgrass plant response rating” value ([8]; Postemergence, 500 g ai/ha) was 90. For the same molecule, the “Plant response rating, Barnyardgrass” value [8, 14] was 0, the “Plant response rating, Barnyardgrass” value [8, 15] was 60 and the “Plant response rating, Crabgrass, Large” value [9, 12] was 50. The “Crabgrass, Large plant response rating” value ([9]; Postemergence, 500 g ai/ha) was 70, the “Plant response rating, Crabgrass, Large” value [9, 14] was 40 and the “Plant response rating, Crabgrass, Large” value [9, 15] was 90. For the same molecule, the “Plant response rating, Velvetleaf” value [10, 12] was 90, the “Velvetleaf plant response rating” value [10, 13] was 100 and the “Plant response rating, Velvetleaf” value [10, 14] was 50. The “Plant response rating, Velvetleaf” value [10, 15] was 60.
With O=C(C1=C(O)C2CCC(C2)C1=O)c1cnc(-c2ccccc2)n(C2CCCCC2)c1=O (centres unmarked) [Compound 248] the “Plant response rating, Flood, Ducksalad” value [1] was 90, the “Plant response rating, Ducksalad” value [1, 11] was 80 and the “Plant response rating, Ducksalad” value [1, 16] was 80. For the same molecule, the “Ducksalad plant response rating” value [1, 17] was 75, the “Plant response rating, Flood, Rice” value (rice (Oryza sativa)) was 0 and the “Plant response rating, Rice” value (rice (Oryza sativa); [11]) was 0. The “Plant response rating, Rice” value (rice (Oryza sativa); [16]) was 0, the “Rice plant response rating” value (rice (Oryza sativa); [17]) was 0 and the “Plant response rating, Flood, Barnyardgrass” value [2] was 40. The “Plant response rating, Barnyardgrass” value [2, 11] was 0, the “Plant response rating, Barnyardgrass” value [2, 16] was 0 and the “Barnyardgrass plant response rating” value [2, 17] was 0. The “Plant response rating, Flood, Sedge, Umbrella” value [3] was 85, the “Plant response rating, Sedge, Umbrella” value [3, 11] was 65 and the “Plant response rating, Sedge, Umbrella” value [3, 16] was 75. The “Sedge, Umbrella plant response rating” value [3, 17] was 50, the “Plant response rating, Foxtail, Giant” value [4, 18] was 50 and the “Foxtail, Giant plant response rating” value [4, 13] was 100. The “Plant response rating, Foxtail, Giant” value [4, 19] was 10, the “Plant response rating, Foxtail, Giant” value [4, 15] was 20 and the “Plant response rating, Morningglory” value [5, 18] was 100. The “Morningglory plant response rating” value [5, 13] was 100, the “Plant response rating, Morningglory” value [5, 19] was 0 and the “Plant response rating, Morningglory” value [5, 15] was 40. The “Plant response rating, Corn” value (corn (Zea mays); [12]) was 0, the “Corn plant response rating” value (corn (Zea mays); Postemergence, 500 g ai/ha) was 30 and the “Plant response rating, Corn” value (corn (Zea mays); [19]) was 0. For the same molecule, the “Plant response rating, Corn” value (corn (Zea mays); [15]) was 20, the “Plant response rating, Wheat” value [6, 18] was 0 and the “Wheat plant response rating” value [6, 13] was 0. The “Plant response rating, Wheat” value [6, 19] was 0, the “Plant response rating, Wheat” value [6, 15] was 20 and the “Plant response rating, Pigweed” value [7, 18] was 80. The “Pigweed plant response rating” value [7, 13] was 90, the “Plant response rating, Pigweed” value [7, 19] was 0 and the “Plant response rating, Pigweed” value [7, 15] was 40. The “Plant response rating, Barnyardgrass” value [8, 12] was 90, the “Barnyardgrass plant response rating” value ([8]; Postemergence, 500 g ai/ha) was 100 and the “Plant response rating, Barnyardgrass” value [8, 19] was 0. For the same molecule, the “Plant response rating, Barnyardgrass” value [8, 15] was 30, the “Plant response rating, Crabgrass, Large” value [9, 12] was 50 and the “Crabgrass, Large plant response rating” value ([9]; Postemergence, 500 g ai/ha) was 80. For the same molecule, the “Plant response rating, Crabgrass, Large” value [9, 19] was 10, the “Plant response rating, Crabgrass, Large” value [9, 15] was 70 and the “Plant response rating, Velvetleaf” value [10, 18] was 100. The “Velvetleaf plant response rating” value [10, 13] was 100, the “Plant response rating, Velvetleaf” value [10, 19] was 20 and the “Plant response rating, Velvetleaf” value [10, 15] was 60.
